For series [1], the system named is K562. Description: Antiproliferative activity against human K562 cells assessed as growth inhibition at 5 uM after 72 hrs by luminescent cell viability assay. The settings on record: K562, 72 h, read-out: GI. It is filed as functional.
Series [2] in a line: Antiproliferative activity against human THP1 cells after 72 hrs by luminescent cell viability assay. The format is functional, cell-based. The note with it: THP-1, 72 h.
In series [3] the target is Receptor-type tyrosine-protein kinase FLT3 (Homo sapiens, UniProt P36888, D835Y). Briefly: Inhibition of recombinant FLT3 D835Y mutant (unknown origin) by TR-FRET assay. A general note: TR-FRET usually uses a lanthanide donor and a delayed reading to cut background.
Series [4] can be described thus: Antiproliferative activity against human HL60 cells assessed as growth inhibition at 5 uM after 72 hrs by luminescent cell viability assay. The settings on record: HL-60, 72 h, read-out: GI. It is filed as functional.
For series [5], the target named is T1, Receptor-type tyrosine-protein kinase FLT3 (Homo sapiens, UniProt P36888).
T1 sequence (P36888 whole entry): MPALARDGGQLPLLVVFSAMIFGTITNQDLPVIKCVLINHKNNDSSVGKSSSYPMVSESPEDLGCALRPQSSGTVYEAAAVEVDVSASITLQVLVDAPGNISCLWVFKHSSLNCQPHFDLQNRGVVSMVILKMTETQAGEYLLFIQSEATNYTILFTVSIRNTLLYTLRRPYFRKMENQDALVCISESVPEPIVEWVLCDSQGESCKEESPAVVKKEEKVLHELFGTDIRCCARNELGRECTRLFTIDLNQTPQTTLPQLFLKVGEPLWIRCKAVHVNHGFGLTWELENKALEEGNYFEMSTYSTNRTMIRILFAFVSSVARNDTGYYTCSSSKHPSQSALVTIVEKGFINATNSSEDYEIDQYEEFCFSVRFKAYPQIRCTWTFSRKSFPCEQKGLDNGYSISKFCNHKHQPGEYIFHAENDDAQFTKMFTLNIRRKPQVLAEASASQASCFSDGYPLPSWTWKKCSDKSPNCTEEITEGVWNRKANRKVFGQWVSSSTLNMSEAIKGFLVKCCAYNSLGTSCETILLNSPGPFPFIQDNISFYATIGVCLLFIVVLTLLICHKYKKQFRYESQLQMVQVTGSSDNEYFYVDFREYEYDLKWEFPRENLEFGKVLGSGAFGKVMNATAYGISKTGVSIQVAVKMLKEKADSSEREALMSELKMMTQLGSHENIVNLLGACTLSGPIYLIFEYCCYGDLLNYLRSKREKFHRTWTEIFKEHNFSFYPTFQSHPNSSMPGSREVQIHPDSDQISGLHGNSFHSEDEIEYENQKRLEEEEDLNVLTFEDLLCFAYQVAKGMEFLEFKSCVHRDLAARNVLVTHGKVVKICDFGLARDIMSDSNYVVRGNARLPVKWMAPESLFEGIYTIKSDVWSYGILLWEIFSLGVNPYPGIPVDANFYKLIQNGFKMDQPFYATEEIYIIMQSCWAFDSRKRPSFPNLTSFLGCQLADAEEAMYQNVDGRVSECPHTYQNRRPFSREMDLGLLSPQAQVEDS
Description: Inhibition of recombinant FLT3 (unknown origin) by TR-FRET assay.

In series [6] the target is MAP kinase-interacting serine/threonine-protein kinase 2 (Homo sapiens) (UniProt Q9HBH9). Briefly: Inhibition of MNK2 (unknown origin) at 10 uM.
Chain of MAP kinase-interacting serine/threonine-protein kinase 2 (Homo sapiens) (Q9HBH9 whole entry, looked up): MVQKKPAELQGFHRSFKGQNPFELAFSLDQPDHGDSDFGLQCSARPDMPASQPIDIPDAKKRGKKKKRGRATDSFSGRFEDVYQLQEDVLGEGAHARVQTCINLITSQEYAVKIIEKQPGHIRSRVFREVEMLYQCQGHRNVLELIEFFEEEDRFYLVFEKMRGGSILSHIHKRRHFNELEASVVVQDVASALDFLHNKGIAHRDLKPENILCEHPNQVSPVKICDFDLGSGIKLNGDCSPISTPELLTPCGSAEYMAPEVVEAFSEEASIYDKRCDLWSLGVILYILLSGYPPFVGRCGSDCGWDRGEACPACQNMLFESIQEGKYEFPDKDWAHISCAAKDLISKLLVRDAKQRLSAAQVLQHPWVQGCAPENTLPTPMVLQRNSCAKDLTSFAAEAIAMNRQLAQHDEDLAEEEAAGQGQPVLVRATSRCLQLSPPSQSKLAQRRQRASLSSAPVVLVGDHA
Series [7] addresses MAP kinase-interacting serine/threonine-protein kinase 1 (Homo sapiens) (UniProt Q9BUB5). Briefly: Inhibition of MNK1 (unknown origin) at 10 uM.
Series [8] deals with MV4-11. Description: Antiproliferative activity against human MV4-11 cells after 72 hrs by luminescent cell viability assay. It is filed as functional, cell-based. The note with it: MV4-11, 72 h.
The test system of series [9] is MV4-11. Description: Antiproliferative activity against human MV4-11 cells assessed as growth inhibition at 5 uM after 72 hrs by luminescent cell viability assay. The settings on record: MV4-11, 72 h, read-out: GI. The format is functional.
A short description of series [10]: Antiproliferative activity against human HEK293T cells assessed as growth inhibition at 5 uM after 72 hrs by luminescent cell viability assay. It is filed as cell-based, HEK-293T. The note with it: read-out: GI.
Series [11] concerns the target Receptor-type tyrosine-protein kinase FLT3 (Homo sapiens, UniProt P36888, ITD). Description: Inhibition of recombinant FLT3 ITD mutant (unknown origin) by RBC kinase assay.
Series [12] can be described thus: Antiproliferative activity against human THP1 cells assessed as growth inhibition at 5 uM after 72 hrs by luminescent cell viability assay. It is filed as functional. The note with it: THP-1, 72 h, read-out: GI.

Some results are limits rather than exact numbers.

Chain of MAP kinase-interacting serine/threonine-protein kinase 1 (Homo sapiens) (Q9BUB5 whole entry, looked up): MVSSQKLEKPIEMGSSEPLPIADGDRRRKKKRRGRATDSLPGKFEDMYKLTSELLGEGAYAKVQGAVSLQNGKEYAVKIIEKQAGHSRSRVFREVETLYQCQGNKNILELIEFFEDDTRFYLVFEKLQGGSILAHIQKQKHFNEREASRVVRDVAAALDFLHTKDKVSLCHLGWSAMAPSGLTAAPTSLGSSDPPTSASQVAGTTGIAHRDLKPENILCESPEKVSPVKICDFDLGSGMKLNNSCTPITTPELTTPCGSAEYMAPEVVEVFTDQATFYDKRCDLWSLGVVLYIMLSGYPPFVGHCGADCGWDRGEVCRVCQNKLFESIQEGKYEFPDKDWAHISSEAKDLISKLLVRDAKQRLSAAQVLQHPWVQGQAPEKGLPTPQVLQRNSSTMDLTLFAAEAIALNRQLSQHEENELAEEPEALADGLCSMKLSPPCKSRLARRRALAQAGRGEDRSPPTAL

`C=CC(=O)NC/C=C/c1cc(OCCCN2CCOCC2)cc(O)c1C(=O)OC(C)C`: the inhibition of growth at 5 µM was 23% in series [1], 8.1% in series [4], 73.9% in series [9] and 9.1% in [12]. The IC50 – broadly, the concentration that gives 50% inhibition – is 20.7 µM in series [2]; 2.81 µM in [3]; 9.61 µM in series [5]; 3.74 µM in series [8]; 0.5 µM in [11]. The figures for the inhibition in [6] and in [7] were 6.5% and 8%, respectively. The inhibition at 72 h, 5 µM in series [10] turned out to be 26.5%.

`C/C=C/C(=O)NC/C=C/c1cc(OCCCN2CCOCC2)cc(O)c1C(=O)OC(C)C`: the IC50 in [3] was 10.5 µM; in series [5], 16.2 µM; in [8], above 10 µM. Further, the inhibition in [6] stood at 12.9%; in series [7] it was 5.8%.

Regarding `C=CC(=O)NC/C=C/c1cc(OCCc2ccc(F)cc2)cc(O)c1C(=O)OC(C)C`, the inhibition of growth at 5 µM in series [1] came to 18.5%; in series [4], 12.2%; in series [9] it was 61.8%; in series [12] it was 23.2%. The IC50 was above 10 µM in [2]; above 30 µM in series [3]; above 30 µM in series [5]; 4.45 µM in [8]; 8.31 µM in series [11]. The inhibition in series [6] came out at 1.1%; in series [7] it was 5.6%. For the same compound, the inhibition at 72 h, 5 µM in series [10] turned out to be 25.8%.

Regarding `COc1cc(O)c(C(=O)OCC2CCCCC2)c(/C=C/CN2C(=O)C=CC2=O)c1`, the inhibition of growth at 5 µM came out at 85.1% in series [1], 71% in series [4], 99.8% in series [9] and 5.9% in series [12]. Further, the IC50 was 7.71 µM in series [2]; 2.1 µM in series [3]; 2.69 µM in series [5]; 1.97 µM in series [8]; above 30 µM in series [11]. Besides, the figures for the inhibition in series [6] and in [7] were 0% and 9.7%, respectively. Moreover, in [10], the inhibition at 72 h, 5 µM is 6.9%.

With `COc1cc(O)c(C(=O)OCc2ccc(Br)cc2)c(/C=C/CN2C(=O)C=CC2=O)c1`, the inhibition of growth at 5 µM in series [1] stood at 28.7%; in series [4], 36.7%; in series [9], 97.9%; in series [12], 0%. The IC50 in series [2] is 7.97 µM; in [3], 1.74 µM; in [5] it was 1.9 µM; in series [8] it was 1.01 µM; in series [11], above 30 µM. The inhibition came out at 0% in series [6] and 4.3% in [7]. For the same compound, in [10], the inhibition at 72 h, 5 µM is 20.1%.

For `COc1cc(O)c(C(=O)OCC(C)c2ccccc2)c(/C=C/CN2C(=O)C=CC2=O)c1` (configuration not stated), the inhibition of growth at 5 µM in series [1] turned out to be 74.9%; in series [4], 56%; in series [9], 99%; in series [12] it was 0%. The IC50 was above 10 µM in [2]; 5.2 µM in [3]; 3.01 µM in series [5]; 3.38 µM in series [8]; above 30 µM in series [11]. Besides, the inhibition in [6] amounted to 0%; in series [7], 8.6%. Also, the inhibition at 72 h, 5 µM in series [10] worked out at 0%.

Regarding `CC(C)OC(=O)c1c(O)cc(OCCCN2CCOCC2)cc1/C=C/CN1C(=O)C=CC1=O`, the inhibition of growth at 5 µM in series [1] came out at 95.9%; in [4], 89.1%; in [9], 99.8%; in series [12], 62.5%. Moreover, the 50% inhibitory concentration (IC50) in series [2] was determined as 7.88 µM; in series [3], 0.94 µM; in series [5], 0.15 µM; in series [8], 1.89 µM; in series [11] it was 0.98 µM. For the same compound, the inhibition in series [6] is 3.1%; in [7] it was 8%. Also, the inhibition at 72 h, 5 µM in series [10] is 38.8%.

For the compound `COc1cc(/C=C/CN2C(=O)C=CC2=O)c(C(=O)OC(C)C)c(OC(C)=O)c1`, the inhibition of growth at 5 µM in series [1] was 99.2%; in series [4], 87.9%; in series [9], 99.8%; in [12], 3.3%. Moreover, the half-inhibitory concentration (IC50) in series [2] stood at 10.4 µM; in [3] it was 3.61 µM; in [5] it was 3.37 µM; in [8], 2.15 µM; in series [11], 21.8 µM. Also, the inhibition in [6] was found to be 5%; in series [7] it was 6.7%. Moreover, the inhibition at 72 h, 5 µM in series [10] was 47.4%.

On to `COc1cc(O)c(C(=O)OCc2ccc(F)cc2)c(/C=C/CN2C(=O)C=CC2=O)c1`, for which the inhibition of growth at 5 µM came to 96.4% in [1], 82.2% in [4], 99.7% in [9] and 0% in series [12]. Further, the IC50 in series [2] was 7.34 µM; in series [3] it was 0.95 µM; in series [5], 1.64 µM; in series [8] it was 1.46 µM; in [11] it was above 30 µM. The results for the inhibition in series [6] and in series [7] were 0% and 4.1%, respectively. Also, the inhibition at 72 h, 5 µM in series [10] was 37.9%.

On to `CCN(CC)C/C=C/C(=O)NC/C=C/c1cc(OC)cc(O)c1C(=O)OC(C)C`, for which the concentration for half-maximal inhibition (IC50) in series [3] is 15.9 µM; in series [5], above 30 µM; in series [8], above 10 µM. The inhibition in [6] worked out at 5.2%; in series [7], 12.5%.

For the compound `CCN(CC)C/C=C/C(=O)NC/C=C/c1cc(OCCc2ccc(F)cc2)cc(O)c1C(=O)OC(C)C`, the inhibition of growth at 5 µM is 49.8% in [1], 36.8% in [4], 84.9% in [9] and 25.7% in series [12]. For the same compound, the IC50 in [2] was above 10 µM; in series [3], above 30 µM; in [5] it was above 30 µM; in series [8], 4.04 µM; in series [11], 1.11 µM. In addition, the values for the inhibition in series [6] and in [7] were 0.8% and 7.8%, respectively. Moreover, the inhibition at 72 h, 5 µM in [10] amounted to 28.5%.

On to `C=CS(=O)(=O)NCCCc1cc(OCCN2CCOCC2)cc(O)c1C(=O)OC(C)C`, for which the inhibition of growth at 5 µM was 13.8% in series [1], 2% in [4], 20.4% in [9] and 0% in series [12]. The half-inhibitory concentration (IC50) is above 10 µM in series [2]; 18.6 µM in series [3]; above 30 µM in [5]; 7.61 µM in series [8]; 4.23 µM in [11]. Besides, the inhibition at 72 h, 5 µM in series [10] worked out at 28.4%.

For the compound `C=CS(=O)(=O)NC/C=C/c1cc(OC)cc(O)c1C(=O)OC(C)C`, the inhibition of growth at 5 µM stood at 36.2% in series [1], 16.6% in series [4], 72.3% in [9] and 19.9% in [12]. The 50% inhibitory concentration (IC50) was found to be 14.7 µM in [2]; 12 µM in [3]; 10.8 µM in series [5]; 4.66 µM in [8]; 2.25 µM in series [11]. Besides, the inhibition in series [6] came to 13.9%; in series [7], 5.6%. Also, in series [10], the inhibition at 72 h, 5 µM was found to be 0.1%.

Consider `CC(C)OC(=O)c1c(O)cc(OCCN2CCOCC2)cc1CCCN1C(=O)C=CC1=O`, for which the inhibition of growth at 5 µM in series [1] came to 99.3%; in series [4], 98.9%; in series [9] it was 99.8%; in series [12] it was 81.5%. The concentration for half-maximal inhibition (IC50) is 5.43 µM in series [2]; 0.81 µM in [3]; 0.58 µM in [5]; 3.51 µM in [8]; 8.87 µM in [11]. Moreover, the inhibition in [6] is 1.8%; in [7] it was 8.8%. Further, the inhibition at 72 h, 5 µM in series [10] is 13.3%.

These data come from ChEMBL document CHEMBL3352474, “Design, synthesis and biological evaluation of FLT3 covalent inhibitors with a resorcylic acid core” (Bioorg Med Chem, 2014).
